According to US20240158446A1, “CYCLIC COMPOUND HAVING SELECTIVE INHIBITORY ACTION ON KRAS OVER HRAS AND NRAS” (CHUGAI SEIYAKU KABUSHIKI KAISHA, priority 2021, published 2024):

Columns and labels:
[1] = test system: human lung cancer strain NCI-H441;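 note: cell proliferation inhibition after four days measured by CellTiter-Glo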
[2] = biological target: GDP-bound HRAS wild-type protein (Homo sapiens, UniProt P01112); test: Binding to HRAS by surface plasmon resonance (SPR), Single Cycle Kinetics; conditions: SPR; GDP-bound HRAS wild-type protein vs GDP-bound KRAS wild-type protein; KD ratio class
Chain of GDP-bound HRAS wild-type protein (P01112 whole entry): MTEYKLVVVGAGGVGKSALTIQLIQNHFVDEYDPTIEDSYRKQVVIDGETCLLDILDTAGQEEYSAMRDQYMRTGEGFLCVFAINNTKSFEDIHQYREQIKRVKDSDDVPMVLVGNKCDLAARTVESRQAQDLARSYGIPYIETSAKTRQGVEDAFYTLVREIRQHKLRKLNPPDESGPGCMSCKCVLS

[3] = biological target: GDP-bound NRAS wild-type protein (Homo sapiens, UniProt P01111); test: Binding to NRAS by surface plasmon resonance (SPR), Single Cycle Kinetics; conditions: SPR; GDP-bound NRAS wild-type protein vs GDP-bound KRAS wild-type protein; KD ratio class
Chain of GDP-bound NRAS wild-type protein (P01111 whole entry): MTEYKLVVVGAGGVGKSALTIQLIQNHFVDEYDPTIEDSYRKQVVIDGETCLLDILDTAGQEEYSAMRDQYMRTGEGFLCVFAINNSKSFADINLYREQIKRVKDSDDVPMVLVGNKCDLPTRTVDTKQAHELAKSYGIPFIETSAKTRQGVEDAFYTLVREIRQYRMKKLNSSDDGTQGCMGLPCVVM

[4] = biological target: GDP-bound KRAS wild-type protein (Homo sapiens, UniProt P01116); test: Binding to KRAS by surface plasmon resonance (SPR), Single Cycle Kinetics; conditions: SPR, Single Cycle Kinetics, 1:1 binding model; GDP-bound KRAS wild-type protein; read-out: KRAS KD
Chain of GDP-bound KRAS wild-type protein (P01116 whole entry): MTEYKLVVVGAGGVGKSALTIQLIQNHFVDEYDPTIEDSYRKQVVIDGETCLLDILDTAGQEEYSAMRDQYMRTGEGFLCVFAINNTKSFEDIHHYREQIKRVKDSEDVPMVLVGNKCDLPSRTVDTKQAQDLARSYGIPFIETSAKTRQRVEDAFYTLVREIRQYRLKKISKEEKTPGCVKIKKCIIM

Row | IC50 [1] | Kd [4] | SMILES | HRAS/KRAS (ratio of KD value for HRAS to KD value for KRAS) [2] | NRAS/KRAS (ratio of KD value for NRAS to KD value for KRAS) [3]
1 | 30.6 nM | 0.098 nM | CCO[C@@H]1C[C@H]2C(=O)NC3(CCC3)C(=O)N(C)[C@@H](C3CCCC3)C(=O)N(C)[C@H](C(=O)N(C)C)CC(=O)N(C)[C@@H](CSC)C(=O)N[C@@H]([C@@H](C)CC)C(=O)N(C)CC(=O)N(C)[C@H]3C/C=C\CCN(C3=O)[C@@H](CC3CCC(F)(F)CC3)C(=O)N(C)CC(=O)N[C@@H](CCc3cc(F)c(C(F)(F)F)c(F)c3)C(=O)N2C1 [PP1449, (2S,8S,12R,14S,20S,23S,27R,30S,36S,38Z)-20-cyclopentyl-2-[(4,4-difluorocyclohexyl)methyl]-8-[2-[3,5-difluoro-4-(trifluoromethyl)phenyl]ethyl]-12-ethoxy-N,N,4,19,22,26,32,35-octamethyl-30-[(1 S)-1-methylpropyl]-27-(methylsulfanylmethyl)-3,6,9,15,18,21,25,28,31,34,42-undecaoxo-spiro[1,4,7,10,16,19,22,26,29,32,35-undecazatricyclo[34.5.1.0^10,14]dotetracont-38-ene-17,1′-cyclobutane]-23-carboxamide] | A (a compound having 10 or more and less than 20 is denoted as A) | A (a compound having 10 or more and less than 20 is denoted as A)
2 | 50.1 nM | 0.14 nM | CCC[C@H]1C(=O)N[C@@H]([C@@H](C)CC)C(=O)N(C)CC(=O)N(C)[C@H]2C/C=C\CCN(C2=O)[C@@H](CC2CCC(F)(F)CC2)C(=O)N(C)CC(=O)N[C@@H](CCc2cc(F)c(C(F)(F)F)c(F)c2)C(=O)N2C[C@H](OCC)C[C@H]2C(=O)NC2(CCC2)C(=O)N(C)[C@@H](C2CCCC2)C(=O)N(C)[C@H](C(=O)N(C)C)CC(=O)N1C [PP1450, (2S,8S,12R,14S,20S,23S,27S,30S,36S,38Z)-20-cyclopentyl-2-[(4,4-difluorocyclohexyl)methyl]-8-[2-[3,5-difluoro-4-(trifluoromethyl)phenyl]ethyl]-12-ethoxy-N,N,4,19,22,26,32,35-octamethyl-30-[(1S)-1-methylpropyl]-3,6,9,15,18,21,25,28,31,34,42-undecaoxo-27-propyl-spiro[1,4,7,10,16,19,22,26,29,32,35-undecazatricyclo[34.5.1.0^10,14]dotetracont-38-ene-17,1′-cyclobutane]-23-carboxamide] | A (a compound having 10 or more and less than 20 is denoted as A) | A (a compound having 10 or more and less than 20 is denoted as A)
3 | 61.1 nM | 0.14 nM | CC[C@H](C)[C@@H]1NC(=O)[C@H](CC)N(C)C(=O)C[C@@H](C(=O)N(C)C)N(C)C(=O)[C@H](C2CCCC2)N(C)C(=O)C2(CCC2)NC(=O)[C@@H]2C[C@@H](C(F)(F)F)CN2C(=O)[C@H](CCc2cc(F)c(C(F)(F)F)c(F)c2)NC(=O)CN(C)C(=O)[C@H](CC2CCC(F)(F)CC2)N2CC/C=C\C[C@@H](C2=O)N(C)C(=O)CN(C)C1=O [PP1451, (2S,8S,12R,14S,20S,23S,27S,30S,36S,38Z)-20-cyclopentyl-2-[(4,4-difluorocyclohexyl)methyl]-8-[2-[3,5-difluoro-4-(trifluoromethyl)phenyl]ethyl]-27-ethyl-N,N,4,19,22,26,32,35-octamethyl-30-[(1S)-1-methylpropyl]-3,6,9,15,18,21,25,28,31,34,42-undecaoxo-12-(trifluoromethyl)spiro[1,4,7,10,16,19,22,26,29,32,35-undecazatricyclo[34.5.1.0^10,14]dotetracont-38-ene-17,1′-cyclobutane]-23-carboxamide] | A (a compound having 10 or more and less than 20 is denoted as A) | A (a compound having 10 or more and less than 20 is denoted as A)
4 | 30.5 nM | 0.13 nM | CCO[C@@H]1C[C@H]2C(=O)NC3(CCC3)C(=O)N(C)[C@@H](C3CCCC3)C(=O)N(C)[C@H](C(=O)N(C)C)CC(=O)N(C)[C@@H](CC)C(=O)N[C@@H]([C@@H](C)CC)C(=O)N(C)CC(=O)N(C)[C@H]3C/C=C\CCN(C3=O)[C@@H](CC3CCC(F)(F)CC3)C(=O)N(C)CC(=O)N[C@@H](CCc3cc(F)c(C(F)(F)F)c(F)c3)C(=O)N2C1 [PP1452, (2S,8S,12R,14S,20S,23S,27S,30S,36S,38Z)-20-cyclopentyl-2-[(4,4-difluorocyclohexyl)methyl]-8-[2-[3,5-difluoro-4-(trifluoromethyl)phenyl]ethyl]-12-ethoxy-27-ethyl-N,N,4,19,22,26,32,35-octamethyl-30-[(1S)-1-methylpropyl]-3,6,9,15,18,21,25,28,31,34,42-undecaoxo-spiro[1,4,7,10,16,19,22,26,29,32,35-undecazatricyclo[34.5.1.0^10,14]dotetracont-38-ene-17,1′-cyclobutane]-23-carboxamide] | A (a compound having 10 or more and less than 20 is denoted as A) | A (a compound having 10 or more and less than 20 is denoted as A)
5 | 13.6 nM | 0.12 nM | CCO[C@@H]1C[C@H]2C(=O)NC3(CCC3)C(=O)N(C)[C@@H](C3CCCC3)C(=O)N(C)[C@H](C(=O)N(C)C)CC(=O)N(C)[C@@H](CC(C)C)C(=O)N[C@@H]([C@@H](C)CC)C(=O)N(C)CC(=O)N(C)[C@H]3C/C=C\CCN(C3=O)[C@@H](CC3CCC(F)(F)CC3)C(=O)N(C)CC(=O)N[C@@H](CCc3cc(F)c(C(F)(F)F)c(F)c3)C(=O)N2C1 [PP1453, (2S,8S,12R,14S,20S,23S,27S,30S,36S,38Z)-20-cyclopentyl-2-[(4,4-difluorocyclohexyl)methyl]-8-[2-[3,5-difluoro-4-(trifluoromethyl)phenyl]ethyl]-12-ethoxy-27-isobutyl-N,N,4,19,22,26,32,35-octamethyl-30-[(1S)-1-methylpropyl]-3,6,9,15,18,21,25,28,31,34,42-undecaoxo-spiro[1,4,7,10,16,19,22,26,29,32,35-undecazatricyclo[34.5.1.0^10,14]dotetracont-38-ene-17,1′-cyclobutane]-23-carboxamide] | A (a compound having 10 or more and less than 20 is denoted as A) | A (a compound having 10 or more and less than 20 is denoted as A)
6 | 15.2 nM | 0.096 nM | C=CC[C@H]1C(=O)N[C@@H]([C@@H](C)CC)C(=O)N(C)CC(=O)N(C)[C@H]2C/C=C\CCN(C2=O)[C@@H](CC2CCC(F)(F)CC2)C(=O)N(C)CC(=O)N[C@@H](CCc2cc(F)c(C(F)(F)F)c(F)c2)C(=O)N2C[C@H](OCC)C[C@H]2C(=O)NC2(CCC2)C(=O)N(C)[C@@H](C2CCCC2)C(=O)N(C)[C@H](C(=O)N(C)C)CC(=O)N1C [PP1454, (2S,8S,12R,14S,20S,23S,27S,30S,36S,38Z)-27-allyl-20-cyclopentyl-2-[(4,4-difluorocyclohexyl)methyl]-8-[2-[3,5-difluoro-4-(trifluoromethyl)phenyl]ethyl]-12-ethoxy-N,N,4,19,22,26,32,35-octamethyl-30-[(1S)-1-methylpropyl]-3,6,9,15,18,21,25,28,31,34,42-undecaoxo-spiro[1,4,7,10,16,19,22,26,29,32,35-undecazatricyclo[34.5.1.0^10,14]dotetracont-38-ene-17,1′-cyclobutane]-23-carboxamide] | A (a compound having 10 or more and less than 20 is denoted as A) | A (a compound having 10 or more and less than 20 is denoted as A)
7 | 13.4 nM | 0.11 nM | CCO[C@@H]1C[C@H]2C(=O)NC3(CCC3)C(=O)N(C)[C@@H](C3CCCC3)C(=O)N(C)[C@H](C(=O)N(C)C)CC(=O)N(C)[C@@H](CC3CCC3)C(=O)N[C@@H]([C@@H](C)CC)C(=O)N(C)CC(=O)N(C)[C@H]3C/C=C\CCN(C3=O)[C@@H](CC3CCC(F)(F)CC3)C(=O)N(C)CC(=O)N[C@@H](CCc3cc(F)c(C(F)(F)F)c(F)c3)C(=O)N2C1 [PP1455, (2S,8S,12R,14S,20S,23S,27S,30S,36S,38Z)-27-(cyclobutylmethyl)-20-cyclopentyl-2-[(4,4-difluorocyclohexyl)methyl]-8-[2-[3,5-difluoro-4-(trifluoromethyl)phenyl]ethyl]-12-ethoxy-N,N,4,19,22,26,32,35-octamethyl-30-[(1S)-1-methylpropyl]-3,6,9,15,18,21,25,28,31,34,42-undecaoxo-spiro[1,4,7,10,16,19,22,26,29,32,35-undecazatricyclo[34.5.1.0^10,14]dotetracont-38-ene-17,1′-cyclobutane]-23-carboxamide] | A (a compound having 10 or more and less than 20 is denoted as A) | A (a compound having 10 or more and less than 20 is denoted as A)
8 | 90 nM | 0.12 nM | CCO[C@@H]1C[C@H]2C(=O)NC3(CCCC3)C(=O)N(C)[C@@H](C3CCCC3)C(=O)N(C)[C@H](C(=O)N(C)C)CC(=O)N(C)[C@@H](C)C(=O)N[C@@H]([C@@H](C)CC)C(=O)N(C)CC(=O)N(C)[C@H]3C/C=C\CCN(C3=O)[C@@H](CC3CCC(F)(F)CC3)C(=O)N(C)CC(=O)N[C@@H](CCc3cc(F)c(C(F)(F)F)c(F)c3)C(=O)N2C1 [PP1456, (2S,8S,12R,14S,20S,23S,27S,30S,36S,38Z)-20-cyclopentyl-2-[(4,4-difluorocyclohexyl)methyl]-8-[2-[3,5-difluoro-4-(trifluoromethyl)phenyl]ethyl]-12-ethoxy-N,N,4,19,22,26,27,32,35-nonamethyl-30-[(1S)-1-methylpropyl]-3,6,9,15,18,21,25,28,31,34,42-undecaoxo-spiro[1,4,7,10,16,19,22,26,29,32,35-undecazatricyclo[34.5.1.0^10,14]dotetracont-38-ene-17,1′-cyclopentane]-23-carboxamide] | A (a compound having 10 or more and less than 20 is denoted as A) | A (a compound having 10 or more and less than 20 is denoted as A)
